Data on nine compounds can be found in PMC4267740, “Unprecedented Therapeutic Potential with a Combination of A2A/NR2B Receptor Antagonists as Observed in the 6-OHDA Lesioned Rat Model of Parkinson's Disease” (PLoS ONE, 2014).

As a reminder, the Ki is a measure of affinity in units of concentration, obtained from inhibition or displacement.

In series [1] the test system is unilaterally 6-OHDA-lesioned rats. On the set-up: method as in PMID 15081591. The note with it: rotometer; cited from earlier work.
Series [2] concerns haloperidol-induced catalepsy. Conditions: threshold dose of Theophylline; cited from earlier work.
A further series relates to PD patients. Conditions: cited from earlier work.
Series [3] relates to rats with a unilateral lesion of the medial forebrain bundle. The note with it: cited from earlier work.
The test system of series [4] is Reserpine-induced akinesia. On the set-up: method as in PMID 9918703. Conditions: cited from earlier work.
Series [5] concerns unilateral 6-OHDA-lesioned rats. Nature of the series: L-Dopa-induced contralateral rotations in rotometers, add-on therapy. The class given is in vivo, rat. The note with it: add-on to L-Dopa 25 mg/kg ip, Preladenant 0.03 mg/kg ip. The method, then: (§1) To protect norepinephrinergic neurons, animals were administered imipramine HCl (Sigma) 15 minutes before surgery. They were subsequently anesthetized with ketamine (Ceva, 75 mg/kg) and xylazine (Bayer, 10 mg/kg) and placed in stereotaxic frame (David Kopf Instrument). 6-OHDA was injected into the right ascending medial forebrain bundle at the following coordinates (in mm) relative to bregma and surface of the dura, AP = −3.5, ML = −1.5, DV = −8.7. Each rat received one injection of 6-OHDA (4 µg/µl) over a period of 5 minutes (0.5 µl/min) for a total of 10 µg per rat. Animals were monitored for 3 weeks to ensure full recovery and habituation to the environment and experimenters.
(§2) On day 21 post surgery, all rats were challenged with a small dose of subcutaneously administered apomorphine (Sigma, 0.05 mg/kg). Rats showing more than 90 contralateral rotations (360°) over a 45-minute recording period were included in the study. […] For each experiment, rats were allocated to the different experimental groups in order to get the same mean level of basal activity measured at the apomorphine challenge amongst the different experimental groups.
The rats tested one week earlier for general activity (actometers) were once again placed in clear acrylic individual chambers (50×45 cm) with the same treatment (drug and dose) than that previously received plus L-Dopa. Eight chambers were placed on a level, clear glass bottom, held by a robust frame, and were subdivided into four individual test cages of 25×22 cm. A removable acrylic plate served as a lid.
Rotational behaviour was recorded using a home-made computerized system. Rats were fixed in a harness and linked to mechanical sensors connected directly to a computer. Each 360° clock-wise or counter clock-wise turn was automatically recorded for up to 120 minutes at the maximum. Throughout the experiments, rats were allocated to individual test cages.
Four different combinations were administered as add-on treatment to a low active dose of L-Dopa (25 mg/kg, ip) without any dopa decarboxylase inhibitor to avoid any additional pharmacokinetic interaction. The doses of the compounds were selected on the basis of preliminary dose-response curves performed separately for each drug. To avoid ceiling effect with L-Dopa, only submaximal doses of each drug were selected for testing (as it was done previously for monotherapy). Eight L-Dopa naïve animals were tested for each of the four pharmacological condition: vehicle and L-Dopa (25 mg/kg); A2A antagonist followed by vehicle and L-Dopa; vehicle followed by NR2B antagonist and L-Dopa; A2A antagonist followed by NR2B and L-Dopa. Due to the dominance of the L-Dopa-effect on the lesioned striatum, the unilateral 6-OHDA-lesioned rats rotated after the drugs administration and behavioral activity was recorded in rotometers (i.e. level of contralateral rotations).
All drugs were administered i.p. 25 minutes before behavioural recording, except for the Tozadenant and Radiprodil combination which was administered orally 60 minutes before behavioural recording. As Radiprodil was administered orally, L-Dopa was given 45 minutes after the Radiprodil injection whereas for the other combinations L-Dopa was given 15 minutes after the NR2B drug. The drugs, the doses and the combinations given in co-administration to L-Dopa are described in Table 4 .
The impact of treatment with A2A or NR2B receptor antagonists, given alone or in combination, on the effect of L-Dopa on contralateral rotations was also analysed with a three-way mixed ANOVA. The ANOVA included the A2A and the NR2B receptor antagonists (both, 2 levels, vehicle and the drug) as between-group factors combined with time (12 levels) as within-subjects factor. […] The ability of the combination to increase and prolong the activity of L-Dopa was also explored. Consequently, drug effects were analyzed for every 10-min time interval. […]

In a further series the target is A2B. On the set-up: method as in PMID 21810444, PMID 9933143, PMID 17236762. Conditions: in vitro binding; rat or human; cited from earlier work.
Series [6] relates to unilateral 6-OHDA-lesioned rats. The series can be described thus: Distance traveled in actometers, monotherapy (without L-Dopa). It is filed as in vivo, rat. The protocol:
as §1, §2
(§3) Drug-naïve separate rats were tested individually in clear acrylic chambers (LE8811 IR, Panlab). Locomotion was detected and measured by 16 infrared light-beam sensors located on each side of the enclosure at a height of 3 cm. Sensors were spaced such that the light beams formed a matrix of 15×15 squares over the surface. Activity counts were recorded on a computer and Acti-Track software (Actitrack, Panlab) was used to convert raw data into “distance traveled” and “rearing counts” for analysis as relevant dependent variables.
(§4) Six different combinations of A2A/NR2B antagonists were tested without L-Dopa. For each combination, there were four different procedures: vehicle only; A2A antagonist followed by vehicle; vehicle followed by the NR2B antagonist and A2A antagonist followed by the NR2B antagonist. The drugs, doses and combinations are described in Table 3. After drug administration, rats were placed in actometers (open-field) for monitoring the general level of motor activity (distance traveled and rearing counts).
(§5) Before undertaking the study, each A2A and NR2B antagonist was tested individually. The doses were selected on the basis of preliminary dose-response curves performed separately for each drug and submaximal dose (i.e. response observed is not at its maximal level) of each drug was selected for the combination studies. The two drugs were administered separately via an intraperitoneal (ip) injection with a 2-minute interval between the two drugs. Five minutes after the second injection, animals were placed in the testing cage for behavioural recording. Due to formulation and exposure issues, Tozadenant and Radiprodil had to be administered orally and therefore recording was started 60 minutes post dosing at this corresponds to maximum plasma concentrations. Eight drug-naïve animals were used for each of the four procedures; 32 in total for each combination. All behavioral experiments were conducted between 8.00 AM and 2.00 PM at the latest. Preliminary pharmacokinetic assays investigated the plasma and brain disposition of selected drugs administered alone or in combination (ie. Tozadenant/Radiprodil, and Sch-58261/Co-101244; 3 animals per group). Tozadenant and Radiprodil were measured in samples obtained 60 minutes after single oral administration at 30 mg/kg. Sch-58261 and Co-101244 were measured in samples collected 90 min after single intraperitoneal administration at 3 mg/kg.
(§6) The effects of A2A and NR2B antagonists on the level of motor activity (i.e. distance traveled and rearing counts) were assessed with three-way mixed ANOVA, combining the A2A receptor antagonist (2 levels, vehicle and the A2A drug) and the NR2B antagonist (2 levels, vehicle and the NR2B drug) as between-group factors with the time as within-subjects factor (6 or 9 levels). […]

The next series has as its system cytochrome P-450 (CYP). On the set-up: method as in earlier work. Conditions: ref 62 (Preladenant), 49 (Merck 22); cited from earlier work.
Another series has as its target A3. On the set-up: method as in PMID 21810444, PMID 9933143, PMID 17236762. Conditions: in vitro binding; rat or human; cited from earlier work.
The subject of series [7] is unilateral 6-OHDA-lesioned rats. The series can be described thus: Rearing counts in actometers, monotherapy (without L-Dopa). It is filed as in vivo, rat. The method, then: as §1, §2, §3, §4, §5, §6
The test system of another series is P-glycoprotein (Pgp). Also noted: method as in earlier work. Conditions: ref 62 (Preladenant), 49 (Merck 22); cited from earlier work.
In a further series the target is A1. On the set-up: method as in PMID 21810444, PMID 9933143, PMID 17236762. Conditions: in vitro binding; rat or human; cited from earlier work.
Series [8] has as its system L-Dopa-induced dyskinesia. Also noted: method as in PMID 18759356. Conditions: randomized double-blind placebo-controlled clinical trial; cited from earlier work.
Another series concerns the target A2A. On the set-up: method as in PMID 21810444, PMID 9933143, PMID 17236762. Conditions: in vitro binding; rat or human; cited from earlier work.
A further series has as its system P-gp. On the set-up: method as in PMID 18552277. Conditions: human subjects; cited from earlier work.
Another series deals with CYP3A. Also noted: method as in PMID 18552277. The note with it: human subjects; cited from earlier work.
Where [9] appears, read: Preladenant 0.1 mg/kg ip, Merck 22 0.3 mg/kg ip.
Setting [10] is: Preladenant 0.1 mg/kg ip, Radiprodil 1 mg/kg ip.
Setting [11] is: Istradefylline 0.3 mg/kg ip, Co-101244 1 mg/kg ip.

Entries after “also recorded” stand apart in the source; their conditions may differ.

Turning to `CC(C(O)c1ccc(O)cc1)N1CCC(Cc2ccccc2)CC1` (stereo not drawn) [Ro 25–6981], the “Induction of contralateral rotations as monotherapy” value in [1] was “inducing contralateral rotations”.

For the compound `C[C@]12N[C@H](Cc3ccccc31)c1ccccc12` [dizocilpine], the “Effect of co-administration with Theophylline on haloperidol-induced catalepsy” value in series [2] is given as “potentiate the effects of a threshold dose of Theophylline”.

Consider `Cc1ccc(COC(=O)N2CC[C@H](CNc3ncccn3)[C@H](F)C2)cc1` [MK-0657], for which, in the series with PD patients (single clinical study), the “Result of clinical study as monotherapy” value is “negative results”.

`O=C(O)C1CN(CCCP(=O)(O)O)CCN1` (stereo not drawn) [CPP]: the “Effect on stepping deficit” value in series [3] is “ameliorate the stepping deficit”.

Regarding `CC(C(O)c1ccc(O)cc1)N1CCC(Cc2ccccc2)CC1` (stereo not drawn) [Ifenprodil], in series [4], the “Effect on Reserpine-induced akinesia” value is “counteract Reserpine-induced akinesia at the highest dose tested”.

For the compound `COCCOc1ccc(N2CCN(CCn3ncc4c3nc(N)n3nc(-c5ccco5)nc43)CC2)cc1` [Preladenant], in [5] (Merck 22 1 mg/kg ip), the “Contralateral rotations, drugs alone vs vehicle, p (planned contrasts on each 10-min interval)” value is reported as “Not significant”; the “Contralateral rotations, drugs main effect, p (three-way mixed ANOVA)” value is listed as “p<0.05”; the “Contralateral rotations, drugs × time effect, p (three-way mixed ANOVA)” value is listed as “p<0.001”. Moreover, in series [5] (Radiprodil 0.3 mg/kg ip), the “Contralateral rotations, drugs alone vs vehicle, p (planned contrasts on each 10-min interval)” value is “Not significant”; the “Contralateral rotations, drugs main effect, p (three-way mixed ANOVA)” value is listed as “p<0.01”; the “Contralateral rotations, drugs × time effect, p (three-way mixed ANOVA)” value is given as “p<0.001”. Also, the Ki at A2B was over 1700 nM. Further, in series [6] (setting [9]), the “Distance traveled, drugs alone vs vehicle, p (Newman-Keuls)” value is on record as “Preladenant: p<0.001”; the “Distance traveled, drugs main effect, p (three-way mixed ANOVA)” value (shortened to “Distance traveled, drugs main effect, p”) is “p<0.001”; the “Distance traveled, drugs × time effect, p (three-way mixed ANOVA)” value was “Not significant”. In series [6] (setting [10]), the “Distance traveled, drugs alone vs vehicle, p (Newman-Keuls)” value was “Both p<0.05”; the “Distance traveled, drugs main effect, p” value is on record as “p<0.001”; the “Distance traveled, drugs × time effect, p (three-way mixed ANOVA)” value is “Not significant”. Also, the “Distance traveled, drug alone in comparison to vehicle-treated controls” value in series [6] (drug administered alone) is “significant increase”. The “In-vitro drug interactions with cytochrome P-450 (CYP)” value in the series on cytochrome P-450 (CYP) is recorded as “devoid of in-vitro risks of drug interactions”. Further, on A3, the Ki is over 1000 nM. Also, in [7] (setting [9]), the “Rearing counts, drugs alone vs vehicle, p (Newman-Keuls)” value is “Preladenant p<0.001”; the “Rearing counts, drugs main effect, p (three-way mixed ANOVA)” value (“Rearing counts, drugs main effect, p” for short) is listed as “p<0.001”; the “Rearing counts, drugs × time effect, p (three-way mixed ANOVA)” value (“Rearing counts, drugs × time effect, p” for short) was “p<0.001”. Besides, in series [7] (setting [10]), the “Rearing counts, drugs alone vs vehicle, p (Newman-Keuls)” value is given as “Preladenant p<0.001”; the “Rearing counts, drugs main effect, p” value is recorded as “p<0.001”; the “Rearing counts, drugs × time effect, p” value is given as “Not significant”. The “In-vitro drug interactions with P-glycoprotein (Pgp)” value in the series on P-glycoprotein (Pgp) was “devoid of in-vitro risks of drug interactions”. In addition, on A1, the Ki was over 1000 nM.

As to `C[C@@H]([C@@H](O)c1ccc(O)cc1)N1CCC(O)(c2ccccc2)CC1` [CP-101,606], the “Efficacy in counteracting L-Dopa-induced dyskinesia” value in series [8] is “demonstrated efficacy”.

For `CCn1c(=O)c2c(nc(/C=C/c3ccc(OC)c(OC)c3)n2C)n(CC)c1=O` [Istradefylline], the Ki at A2A is 12 nM. In addition, the Ki at A2B is over 10000 nM. Also, in series [6] (setting [11]), the “Distance traveled, drugs alone vs vehicle, p (Newman-Keuls)” value was “not all drugs when administered alone improved distance traveled; also recorded: Not significant”; the “Distance traveled, drugs main effect, p” value was “p<0.001”; the “Distance traveled, drugs × time effect, p (three-way mixed ANOVA)” value is “Not significant”. Moreover, at A3, the Ki was 4470 nM. Also, in series [7] (setting [11]), the “Rearing counts, drugs alone vs vehicle, p (Newman-Keuls)” value is on record as “Istradefylline, p<0.01”; the “Rearing counts, drugs main effect, p” value is reported as “p<0.001”; the “Rearing counts, drugs × time effect, p” value is “p<0.01”. Also, the “Inhibition of P-gp” value with P-gp was “modest inhibition”. The “Effect on CYP3A-mediated drug metabolism” value in the series on CYP3A was “does not impair”. Further, the inhibition constant (Ki) on A1 was 841 nM. For the same compound, the “Clinical efficacy when combined with L-Dopa” value with PD patients (PD patients) was “demonstrated significant efficacy”. The “Clinical benefit as monotherapy (without L-Dopa)” value in the series with PD patients (de-novo PD patients) is reported as “did not produce statistically significant benefits”.

Regarding `C/C(=C\C(N)C(=O)O)CP(=O)(O)O` (stereo not drawn) [CGP37849], the “Effect of co-administration with Theophylline on haloperidol-induced catalepsy” value in [2] was “potentiate the effects of a threshold dose of Theophylline”.
